Results published in patent US20070185172A1, “Organic compounds” (priority 2004, published 2007).

Columns and labels:
Recombinant human GR = target: T1, Recombinant human GR (Homo sapiens, UniProt P04150); test: Glucocorticoid receptor binding, fluorescence polarisation with Fluormone-GS1; conditions: Fluormone-GS1 ligand, 1 hr at room temperature, Ki calculated from IC50 using the Cheng-Prussoff equation
T1 construct: purchased Panvera (Madison, Wis., USA); host or cells: baculovirus-infected insect Sf-9 cells
T1 sequence (P04150 1-777): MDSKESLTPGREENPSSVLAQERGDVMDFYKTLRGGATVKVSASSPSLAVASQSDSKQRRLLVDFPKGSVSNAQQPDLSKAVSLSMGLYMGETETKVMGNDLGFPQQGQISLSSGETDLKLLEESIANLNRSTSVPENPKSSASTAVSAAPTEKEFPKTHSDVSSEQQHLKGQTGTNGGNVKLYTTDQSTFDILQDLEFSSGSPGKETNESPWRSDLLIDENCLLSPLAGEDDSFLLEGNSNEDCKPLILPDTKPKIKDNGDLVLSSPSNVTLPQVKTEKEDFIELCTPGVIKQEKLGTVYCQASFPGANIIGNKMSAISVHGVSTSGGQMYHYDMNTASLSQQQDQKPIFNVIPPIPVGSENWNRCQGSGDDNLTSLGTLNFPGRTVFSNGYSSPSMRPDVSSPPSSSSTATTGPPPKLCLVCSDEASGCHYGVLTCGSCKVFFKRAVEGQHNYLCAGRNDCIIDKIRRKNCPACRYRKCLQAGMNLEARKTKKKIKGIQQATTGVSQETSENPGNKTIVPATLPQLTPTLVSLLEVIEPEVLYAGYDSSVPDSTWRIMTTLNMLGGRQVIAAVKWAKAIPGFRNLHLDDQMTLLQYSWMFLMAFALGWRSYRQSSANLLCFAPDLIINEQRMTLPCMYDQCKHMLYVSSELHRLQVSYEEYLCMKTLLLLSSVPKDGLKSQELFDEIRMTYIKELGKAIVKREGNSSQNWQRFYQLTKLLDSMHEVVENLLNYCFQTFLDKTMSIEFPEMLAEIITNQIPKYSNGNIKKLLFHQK
Protocol: Binding to the glucocorticoid receptor may be measured in the following assay:
Recombinant human GR expressed in baculovirus-infected insect Sf-9 cells is obtained from Panvera (Madison, Wis., USA), as is GR assay buffer and the proprietary fluorescent ligand Fluormone™-GS1 (200 nM methanol solution). The assay is conducted in 384 well plates by sequential addition of a serially diluted dimethylsulfoxide solution of test compound in water (2 μl), Fluormone™-GS1 (2.2 nM in GR assay buffer, 10 μl) and GR solution (8.8 nM in GR assay buffer, 10 μl). The assay is incubated in the dark at room temperature for 1 hr, prior to fluorescence polarisation measurement using an analyst multiwell instrument with 485 nm excitation and 530 nm emission filters. The concentration of test compound resulting in half-maximum shift in polarisation gives the IC50. Curves are fitted using Origin™ software and Ki values were calculated using the Cheng-Prussoff equation. Compounds of Examples 1, 2, 3, and 4 have Ki values of 0.5, 1.4, 0.4 and 0.2 nM respectively in this assay.

[1] = test system: TNF-alpha synthesis and release in human macrophage cell line U937; test: Inhibition of TNF-alpha synthesis and release in LPS-stimulated differentiated U937 cells; format: cell-based; conditions: U-937, PMA-differentiated U937 cells, 10 ng/ml LPS, 24 hours, TNFα by sandwich ELISA
Protocol: Inhibition of TNF-alpha synthesis and release may be measured by the following assay:
Human macrophage cell line U937 is obtained from American Type Culture Collection (Rockville Md.) and cultured in RPMI 1640 (Gibco UK) supplemented with 10% FCS (Gibco UK). Cell density is adjusted to 4×10^5 cells/ml and the cells are differentiated by adding phorbal myristate acetate (PMA, 20 ng/ml) for 4 hours. The PMA is removed by washing and the adherent cells are incubated for a further 48 hours at 37° C. in a humidified incubator with 5% CO2. Differentiated U937 cells are removed using cell dissociation buffer (Gibco UK) and the cell density is adjusted to 1×10^6 cells/ml. 100 μl of the cell suspension is placed in 96 well culture plates and 50 μl of either medium or compound at the appropriate concentration in dimethylsulfoxide are added. After a preincubation of 20 minutes at 37° C., the cells are stimulated with 10 ng/ml lipopolysaccharide (LPS, Sigma) and the supernatants are harvested after 24 hours of incubation at 37° C. in a humidified incubator with 5% CO2. Concentration of TNFα in the supernatants is determined by sandwich ELISA using two monoclonal antibodies recognising different epitopes of the cytokine (Pharmingen UK). Binding of the second antibody is analysed by stepwise incubation with streptavidin alkaline phosphatase conjugate (Sigma UK) and 4-nitrophenylphosphate disodium salt. Optical density is measured at 405 nm and cytokine concentration calculated based on results from serial diluations of standard recombinant TNFα. Curves are fitted and IC50 values calculated using Origin™ software.

SMILES | Ki (Recombinant human GR) [nM] | IC50 [1] [nM]
CCCN1C[C@@H]2CC3C4CCC5=CC(=O)C=C[C@]5(C)C4[C@@H](O)C[C@]3(C)[C@]2(C(=O)CO)O1 (stereo partly drawn) [Example 1, (4aR,5S,6aS,6bR,9aS)-5-Hydroxy-6b-(2-hydroxy-acetyl)-4a,6a-dimethyl-8-propyl-4a,4b,5,6,6a,6b,8,9,9a,10,10a,10b,11,12-tetradecahydro-7-oxa-8-pentaleno[2,1-a]phenanthren-2-one] | 0.5 | 1.16
CN1C[C@@H]2CC3C4CCC5=CC(=O)C=C[C@]5(C)C4[C@@H](O)C[C@]3(C)[C@]2(C(=O)CO)O1 (stereo partly drawn) [Example 2, (4aR,5S,6aS,6bR,9aS)-5-Hydroxy-6b-(2-hydroxy-acetyl)-4a,6a,8-trimethyl-4a,4b,5,6,6a,6b, 8,9,9a,10a,10b,11,12-tetradecahydro-7-oxa-8-aza-pentaleno[2,1-a]phenanthren-2-one] | 1.4 | 4.95
CCCCN1C[C@@H]2CC3C4CCC5=CC(=O)C=C[C@]5(C)C4[C@@H](O)C[C@]3(C)[C@]2(C(=O)CO)O1 (stereo partly drawn) [Example 3, (4aR,5S,6aS,6bR,9aS)-8-Butyl-5-hydroxy-6b-(2-hydroxy-acetyl)-4a,6a-dimethyl-4a,4b,5,6,6a,6b,8,9,9a,10,10a,10b,11,12-tetradecahydro-7-oxa-8-aza-pentaleno[2,1-a]phenanthren-2-one] | 0.4 | 0.89
C[C@]12C=CC(=O)C=C1CCC1C2[C@@H](O)C[C@@]2(C)C1C[C@H]1CN(C3CCCCC3)O[C@]12C(=O)CO (stereo partly drawn) [Example 4, (4aR,5S,6aS,6bR,9aS)-8-Cyclohexyl-5-hydroxy-6b-(2-hydroxy-acetyl)-4a,6a-dimethyl-4a,4b, 5,6,6a,6b,8,9,9a,10,10a,10b,11,12-tetradecahydro-7-oxa-8-aza-pentaleno[2,1-a]-phenan-thren-2-one] | 0.2 | 3.57
